Experimental data taken from the NIST ThermoML archive (doi:10.1021/acs.jced.7b01035).
Numbers after ± are expanded uncertainties.

Conditions: 500 kPa, Liquid, Concentric cylinders viscometry

Compound `NCCCO` [3-amino-1-propanol] has a viscosity (298.15 K) of 30.43 ± 0.33 mPa·s, a viscosity (303.15 K) of 23.87 ± 0.32 mPa·s and a viscosity (308.15 K) of 19.07 ± 0.31 mPa·s. For the same compound, the viscosity (313.15 K) was 15.27 ± 0.31 mPa·s, the viscosity (318.15 K) was 12.36 ± 0.31 mPa·s and the viscosity (323.15 K) was 10.22 ± 0.3 mPa·s. For the same compound, the viscosity (328.15 K) was 8.54 ± 0.3 mPa·s, the viscosity (333.15 K) was 7.12 ± 0.3 mPa·s and the viscosity (338.15 K) was 6.05 ± 0.3 mPa·s. It also gave a viscosity (343.15 K) of 4.84 ± 0.3 mPa·s, a viscosity (348.15 K) of 4.17 ± 0.3 mPa·s and a viscosity (353.15 K) of 3.63 ± 0.3 mPa·s. For the same compound, the viscosity (358.15 K) was 3.19 ± 0.3 mPa·s, the viscosity (363.15 K) was 2.73 ± 0.3 mPa·s and the viscosity (368.15 K) was 2.52 ± 0.3 mPa·s. It also gave a viscosity (373.15 K) of 2.25 ± 0.3 mPa·s.
